The results in this text go back to ChEMBL document CHEMBL1138506, “Exploration of structure-activity relationship determinants in analogue series” (J Med Chem, 2009).

For series [1], the target named is Prothrombin (Homo sapiens) (UniProt P00734). The series can be described thus: Inhibition of human thrombin.
In another series the target is Cytochrome P450 3A4 (Homo sapiens, UniProt P08684). The experiment in a line: Inhibition of human CYP3A4. Type of series: ADME.
Series [2] addresses T1, Peroxisomal multifunctional enzyme type 2 (Homo sapiens) (UniProt P51659).
T1 sequence (whole entry): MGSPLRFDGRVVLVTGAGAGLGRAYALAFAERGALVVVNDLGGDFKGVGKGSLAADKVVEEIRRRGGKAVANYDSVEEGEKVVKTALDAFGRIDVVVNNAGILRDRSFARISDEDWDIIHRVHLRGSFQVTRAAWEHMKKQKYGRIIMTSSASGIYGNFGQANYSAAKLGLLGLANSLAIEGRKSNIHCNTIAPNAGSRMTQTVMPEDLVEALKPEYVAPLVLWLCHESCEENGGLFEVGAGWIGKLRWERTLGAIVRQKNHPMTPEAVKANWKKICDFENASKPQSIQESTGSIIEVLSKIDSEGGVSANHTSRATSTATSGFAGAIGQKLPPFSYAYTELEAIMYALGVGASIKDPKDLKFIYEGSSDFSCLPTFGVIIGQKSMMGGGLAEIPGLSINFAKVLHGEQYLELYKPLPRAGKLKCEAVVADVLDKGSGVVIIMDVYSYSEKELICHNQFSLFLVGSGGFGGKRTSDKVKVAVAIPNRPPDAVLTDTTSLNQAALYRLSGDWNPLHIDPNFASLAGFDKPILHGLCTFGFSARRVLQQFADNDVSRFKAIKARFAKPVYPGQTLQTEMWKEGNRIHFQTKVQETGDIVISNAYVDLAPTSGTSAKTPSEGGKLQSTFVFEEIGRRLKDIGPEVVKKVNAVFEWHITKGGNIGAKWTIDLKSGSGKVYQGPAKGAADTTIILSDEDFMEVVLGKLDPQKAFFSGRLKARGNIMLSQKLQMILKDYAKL
The experiment in a line: Inhibition of hydroxysteroid-17-beta dehydrogenase 4.

Sequence of Cytochrome P450 3A4 (P08684 whole entry): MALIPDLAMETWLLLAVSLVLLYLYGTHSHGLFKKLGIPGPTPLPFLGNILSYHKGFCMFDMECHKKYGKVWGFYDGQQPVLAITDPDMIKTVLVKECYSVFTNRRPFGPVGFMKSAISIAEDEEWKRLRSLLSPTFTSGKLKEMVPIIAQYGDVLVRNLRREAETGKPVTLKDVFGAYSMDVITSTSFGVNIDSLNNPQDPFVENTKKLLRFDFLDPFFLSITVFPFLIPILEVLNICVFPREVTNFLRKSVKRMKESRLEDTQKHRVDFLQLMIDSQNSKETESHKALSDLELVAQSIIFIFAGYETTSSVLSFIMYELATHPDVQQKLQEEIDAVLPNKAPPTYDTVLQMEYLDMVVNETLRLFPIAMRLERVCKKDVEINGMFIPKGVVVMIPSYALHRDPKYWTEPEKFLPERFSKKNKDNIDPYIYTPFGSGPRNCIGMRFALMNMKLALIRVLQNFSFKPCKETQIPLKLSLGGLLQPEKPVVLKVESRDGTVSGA

Take `Nc1nc(-c2ccco2)nn1C(=O)c1ccccc1`: the Activity in series [1] worked out at 926 nM.
Turning to `Cc1cccc(CNc2ncncc2-c2ccccc2C(F)(F)F)c1`, at Cytochrome P450 3A4, the Activity is 79 µM.
The molecule `COc1ccccc1CNc1ncnc2ccc(-c3ccccc3C#N)cc12` gave an Activity at Cytochrome P450 3A4 of 4 µM.
Regarding `COc1ccccc1C(=O)n1nc(-c2ccco2)nc1N`, the Activity in series [1] is 6930 nM.
As to `COc1ccccc1C(=O)n1nc(-c2ccco2)nc1SC`, in series [1], the Activity came to 1 nM.
`CN(C)C(=O)c1ccc(-c2ccc3ncnc(NCc4ccccc4)c3c2)cc1`: at Cytochrome P450 3A4, the Activity amounted to 15.8 µM.
Molecule `Nc1nc(-c2ccco2)nn1C(=O)c1ccc(Cl)cc1` gave an Activity in series [1] of 1460 nM.
For `COc1ccc(CNc2ncncc2-c2cccc(C#N)c2)c(OC)c1`, the Activity on Cytochrome P450 3A4 was 316 µM.
In the case of `COc1ccc(CNc2ncncc2-c2ccccc2C(F)(F)F)c(OC)c1`, the Activity on Cytochrome P450 3A4 stood at 316 µM.
`CN(C)C(=O)c1ccc(-c2cncnc2NCc2ccccc2)cc1` yielded an Activity on Cytochrome P450 3A4 of 2512 µM.
The same measure, in the same setting: next, `Cc1cccc(CNc2ncncc2-c2cccc(C#N)c2)c1`: 199 µM; `COc1ccc(CNc2ncncc2-c2ccccc2OC)c(OC)c1`: 316 µM.
`Cc1cccc(CNc2ncncc2-c2ccc(C(=O)N(C)C)cc2)c1` gave an Activity on Cytochrome P450 3A4 of 631 µM.
Molecule `COc1ccc(CNc2ncncc2-c2ccccc2C)c(OC)c1` gave an Activity on Cytochrome P450 3A4 of 398 µM.
Still for that read-out and setting: next, `COc1ccc(CNc2ncnc3ccc(-c4ccccc4C#N)cc23)c(OC)c1`: 1 µM; `N#Cc1cccc(-c2cncnc2NCc2ccccc2)c1`: 1259 µM; `COc1ccccc1CNc1ncnc2ccc(-c3ccc(C(=O)N(C)C)cc3)cc12`: 10 µM.
`Cc1ccccc1-c1cncnc1NCc1ccccc1` came in with an Activity at Cytochrome P450 3A4 of 316 µM.
The same measure, in the same setting: the same measure for `COc1ccc(CNc2ncncc2-c2ccc(C(=O)N(C)C)cc2)c(OC)c1`: 501 µM.
In turn, `COC(=O)C(C)Oc1ccc2c3c(c(=O)oc2c1)CCCCC3` (stereo not given) registered an Activity in series [2] of 32 µM.
Consider `COc1ccc(CNc2ncncc2-c2ccccc2OC)cc1`, for which the Activity on Cytochrome P450 3A4 came to 199 µM.
On the same count and under the same terms, the same measure for `Cc1cccc(CNc2ncncc2-c2ccccc2Cl)c1`: 199 µM; for `COc1ccc(CNc2ncncc2-c2ccccc2CN(C)C)c(OC)c1`: 398 µM.
For `CC(=O)C(C)Oc1ccc2c3c(c(=O)oc2c1)CCCCC3` (stereo not given), in series [2], the Activity came out at 25 µM.
Turning to `COc1ccc(CNc2ncnc3ccc(-c4cccc(C#N)c4)cc23)c(OC)c1`, the Activity at Cytochrome P450 3A4 stood at 1.6 µM.
In series [1], `COc1ccc(C(=O)n2nc(-c3ccco3)nc2SC)cc1OC` registered an Activity of 204 nM.
At Cytochrome P450 3A4, `COc1cccc(-c2ccc3ncnc(NCc4ccc(OC)cc4OC)c3c2)c1` had an Activity of 2.5 µM.
`COc1cccc(-c2cncnc2NCc2ccccc2OC)c1`: the Activity at Cytochrome P450 3A4 stood at 501 µM.
Still for that read-out and setting: next, `COc1ccccc1CNc1ncnc2ccc(-c3ccc(N(C)C)cc3)cc12`: 2 µM; `COc1ccccc1CNc1ncncc1-c1cccc(NS(C)(=O)=O)c1`: 251 µM.
Same read-out and setting: next, `COc1ccccc1CNc1ncnc2ccc(-c3ccccc3OC)cc12`: 6.3 µM.
In the case of `Cc1ccc(C(=O)n2nc(-c3ccco3)nc2N)cc1`, in series [1], the Activity came out at 741 nM.
In series [2], `CC(=O)COc1ccc2c3c(c(=O)oc2c1C)CCCCC3` displayed an Activity of 13 µM.
The molecule `COc1ccccc1CNc1ncnc2ccc(-c3cccc(C#N)c3)cc12` returned an Activity at Cytochrome P450 3A4 of 8 µM.
`COc1ccc(CNc2ncnc3ccc(-c4cccc(NS(C)(=O)=O)c4)cc23)c(OC)c1` gave an Activity at Cytochrome P450 3A4 of 2 µM.
Still for that read-out and setting: the same measure for `COc1cccc(-c2cncnc2NCc2ccc(OC)cc2OC)c1`: 501 µM; for `COc1ccc(CNc2ncnc3ccc(-c4ccccc4CN(C)C)cc23)c(OC)c1`: 8 µM.
Still for that read-out and setting: the same measure for `COc1ccc(CNc2ncnc3ccc(-c4ccc(C(=O)N(C)C)cc4)cc23)c(OC)c1`: 2.5 µM.
In series [1], `COc1ccc(C(=O)n2nc(-c3ccco3)nc2N)cc1` showed an Activity of 828 nM.
At Cytochrome P450 3A4, `COc1ccccc1-c1cncnc1NCc1ccccc1` gave an Activity of 251 µM.
In the case of `COc1ccccc1-c1ccc2ncnc(NCc3ccccc3)c2c1`, the Activity on Cytochrome P450 3A4 came to 12.6 µM.
With `COc1cccc(-c2cncnc2NCc2cccc(C)c2)c1`, the Activity on Cytochrome P450 3A4 was 398 µM.
`COc1ccc(CNc2ncnc3ccc(-c4ccc(N(C)C)cc4)cc23)c(OC)c1` came in with an Activity at Cytochrome P450 3A4 of 4 µM.
The same measure, in the same setting: next, `COc1ccc(CNc2ncncc2-c2ccc(N(C)C)cc2)c(OC)c1`: 199 µM.
Take `Cc1cccc(CNc2ncnc3ccc(-c4ccccc4C#N)cc23)c1`: on Cytochrome P450 3A4, the Activity worked out at 1.2 µM.
In the case of `COc1ccccc1CNc1ncnc2ccc(-c3cccc(NS(C)(=O)=O)c3)cc12`, the Activity at Cytochrome P450 3A4 amounted to 3.2 µM.
In turn, `COc1ccc(C(=O)n2nc(-c3ccco3)nc2N)cc1OC` yielded an Activity in series [1] of 2230 nM.
`CN(C)Cc1ccccc1-c1ccc2ncnc(NCc3ccccc3)c2c1` displayed an Activity at Cytochrome P450 3A4 of 15.8 µM.
At Cytochrome P450 3A4, `COc1ccc(CNc2ncnc3ccc(-c4ccccc4OC)cc23)c(OC)c1` gave an Activity of 2 µM.
Still for that read-out and setting: next, `Cc1cccc(CNc2ncnc3ccc(-c4ccc(C(=O)N(C)C)cc4)cc23)c1`: 2 µM; `COc1ccccc1CNc1ncncc1-c1ccc(C(=O)N(C)C)cc1`: 2512 µM; `COc1ccccc1-c1cncnc1NCc1cccc(C)c1`: 100 µM.
Consider `COc1ccccc1CNc1ncncc1-c1ccccc1C(F)(F)F`, for which the Activity at Cytochrome P450 3A4 came out at 79 µM.
As for `CN(C)c1ccc(-c2ccc3ncnc(NCc4ccccc4)c3c2)cc1`, on Cytochrome P450 3A4, the Activity is 2.5 µM.
Consider `COc1ccccc1CNc1ncnc2ccc(-c3ccccc3CN(C)C)cc12`, for which, on Cytochrome P450 3A4, the Activity was determined as 12.6 µM.
Still for that read-out and setting: the same measure for `COc1ccc(CNc2ncncc2-c2cccc(NS(C)(=O)=O)c2)c(OC)c1`: 251 µM.
`CS(=O)(=O)Nc1cccc(-c2cncnc2NCc2ccccc2)c1` gave an Activity at Cytochrome P450 3A4 of 631 µM.
In the case of `COc1ccccc1CNc1ncncc1-c1ccccc1Cl`, the Activity on Cytochrome P450 3A4 came out at 199 µM.
In the case of `CSc1nc(-c2ccco2)nn1C(=O)c1ccccc1`, the Activity in series [1] was 82 nM.
Regarding `NC(=O)COc1ccc2c3c(c(=O)oc2c1)CCCCC3`, the Activity in series [2] amounted to 25 µM.
With `COc1cccc(-c2cncnc2NCc2ccccc2)c1`, the Activity at Cytochrome P450 3A4 came to 316 µM.
On the same count and under the same terms, the same measure for `Cc1cccc(CNc2ncncc2-c2cccc(NS(C)(=O)=O)c2)c1`: 158 µM.
In turn, `CSc1nc(-c2ccco2)nn1C(=O)c1ccc(C)cc1` yielded an Activity in series [1] of 159 nM.
On to `Nc1nc(-c2ccco2)nn1C(=O)c1ccccc1Cl`, for which the Activity in series [1] turned out to be 14000 nM.
At Cytochrome P450 3A4, `Cc1cccc(CNc2ncncc2-c2ccccc2C)c1` displayed an Activity of 398 µM.
